# From PMC11322497 (Frontiers in Pharmacology, 2024)
# Key:
# [1] = Ex vivo plasma protein binding, terminal bleed after 5 days of acute dosing; type: in vitro ADME; details: rabbit, plasma from dosed rabbits (ex vivo), oral, 30 mg/kg, terminal bleed after 5 days 30 mg/kg, week 12
# [2] = test system: high fat diet (HFD) rabbit model of metabolic-associated steatohepatitis (MASH); assay: HFD rabbit study, prolonged 4-week treatment: liver histomorphology and immunohistochemistry; type: in vivo, New Zealand White rabbits; details: weeks 9–12; for Ballooning score 0 (no ballooning), share of animals / Ballooning score 1 (few ballooned cells), share of animals / Ballooning score 2 (prominent ballooning), share of animals / Fibrosis (Ishak Score) 0, share of animals / Fibrosis (Ishak Score) 1, share of animals / Fibrosis (Ishak Score) 2, share of animals / Fibrosis (Ishak Score) 3, share of animals / Fibrosis (Ishak Score) 4, share of animals / Fibrosis (Ishak Score) 5, share of animals / Inflammation score 0 (no foci), share of animals / Inflammation score 1 (<2 foci), share of animals / Inflammation score 2 (2–4 foci), share of animals / Inflammation score 3 (> 4 foci), share of animals: n=7
# Description: After 1 week (W) of RD, the animals (n = 44) were randomly assigned to the following groups (Table 1B): • Control rabbits continued to receive a RD for 12 weeks and were treated with vehicle for 5 days a week (days 1–5, p.o.) during the last 4 weeks before culling (RD + 4W Veh group); • Rabbits received a HFD for 8 weeks and were culled (HFD 8W group); • Rabbits received a HFD for 12 weeks and were treated with vehicle for 5 days a week (days 1–5, p.o.) during the last 4 weeks before culling (HFD+4W Veh group); • Rabbits received a HFD for 12 weeks and were treated with GB1211 (0.3 mg/kg) for 5 days a week (days 1–5, p.o.) during the last 4 weeks before culling (HFD + 4W 0.3 mg group); • Rabbits received a HFD for 12 weeks and were treated with GB1211 (1.0 mg/kg) for 5 days a week (days 1–5, p.o.) during the last 4 weeks before culling (HFD + 4W 1.0 mg group); • Rabbits received a HFD for 12 weeks and were treated with GB1211 (5.0 mg/kg) for 5 days a week (days 1–5, p.o.) during the last 4 weeks before culling (HFD + 4W 5.0 mg group).
# Liver specimens were fixed in 10% buffered formalin (Sigma-Aldrich Corp., St. Louis, MO), paraffin embedded and sectioned at a thickness of 5 μm with a microtome. The slides were stained with hematoxylin and eosin (H&E; both Bio-Optica, Milan, Italy), following standard protocols for histological analysis, to evaluate the general morphology and tissue structure, and then analyzed to evaluate inflammation and […] using Giemsa and Masson’s trichrome staining, respectively. Briefly, deparaffinized and rehydrated sections were incubated with Giemsa (Bio-Optica) in distilled water at ratio 1:1 or with Masson’s trichrome (Bio-Optica), following the manufacturer’s instructions, as previously described ([Vignozzi et al., 2014]). To evaluate lipid accumulation, liver specimens were also cryosectioned at a thickness of 8 μm, fixed with 4% paraformaldehyde, treated for 2–5 min with isopropanol and stained with Oil Red O (Bio-Optica) for 20 min, following the manufacturer’s instructions.
# In liver, collagen content evaluation for fibrosis grade and quantification was conducted by staining using Picrosirius Red Stain kit (Bio-Optica), as per manufacturer’s instructions. Briefly, deparaffinized and rehydrated sections were incubated with the staining solution for 50 min, rinsed with the appropriate reagents and with distilled water, dehydrated through ascending alcohols and xylene, and mounted, as previously described ([Comeglio et al., 2017]).
# The expression of RAM11, galectin-3, and vimentin was evaluated by immunohistochemical analysis on 5 μm thick paraffin embedded liver sections. Briefly, deparaffinized and rehydrated sections were incubated overnight at 4°C with mouse monoclonal anti-RAM11 (1:80; Dako, Carpenteria, CA), mouse monoclonal anti-galectin-3 (1:100; Abcam, Cambridge, United Kingdom) or mouse monoclonal anti-vimentin (1:800; Santa Cruz Biotechnology, Dallas, TX) antibodies, followed by biotinylated anti-mouse secondary antibody (Millipore, Burlington, MA) and streptavidin-peroxidase complex (Millipore). The reaction product was developed with 3′,3′-diaminobenzidine tetrahydrochloride as chromogen (Merck KgaA, Darmstadt, Germany). Negative controls were performed avoiding primary antibody. Percentage of the sampled area for galectin-3 and vimentin staining was obtained on ×200 and ×40 original magnification slides, respectively, using ImageJ software on five fields for each slide. Semi-quantitative staining of percentage of the sampled area for Picrosirius Red, Oil Red O, galectin-3 and vimentin was obtained using open source Java-based ImageJ software (Fiji bundle, https://imagej.net/). All slides were evaluated blindly and photographed using a Nikon Microphot-FXA microscope (Nikon, Tokyo, Japan).
smiles,measurement,setting,value
OC[C@H]1O[C@H](Sc2cncc(Br)c2)[C@H](O)[C@@H](n2cc(-c3cc(F)c(F)c(F)c3)nn2)[C@H]1O [selvigaltin],fraction unbound at 5 days,[1]; HFD rabbits,0.929
same,fraction unbound at 5 days,[1]; RD rabbits,0.946
same,Picrosirius Red percentage of fibrosis area,"[2]; HFD rabbits, 0.3 mg and 5.0 mg dosages",only partially counteracted
same,"Ballooning score 0 (no ballooning), share of animals","[2]; HFD rabbits, 0.3 mg/kg p.o.",0.0%
same,"Ballooning score 1 (few ballooned cells), share of animals","[2]; HFD rabbits, 0.3 mg/kg p.o.",42.9%
same,"Ballooning score 2 (prominent ballooning), share of animals","[2]; HFD rabbits, 0.3 mg/kg p.o.",57.1%
same,"Fibrosis (Ishak Score) 0, share of animals","[2]; HFD rabbits, 0.3 mg/kg p.o.",0.0%
same,"Fibrosis (Ishak Score) 1, share of animals","[2]; HFD rabbits, 0.3 mg/kg p.o.",14.3%
same,"Fibrosis (Ishak Score) 2, share of animals","[2]; HFD rabbits, 0.3 mg/kg p.o.",0.0%
same,"Fibrosis (Ishak Score) 3, share of animals","[2]; HFD rabbits, 0.3 mg/kg p.o.",57.1%
same,"Fibrosis (Ishak Score) 4, share of animals","[2]; HFD rabbits, 0.3 mg/kg p.o.",28.6%
same,"Fibrosis (Ishak Score) 5, share of animals","[2]; HFD rabbits, 0.3 mg/kg p.o.",0.0%
same,"Inflammation score 0 (no foci), share of animals","[2]; HFD rabbits, 0.3 mg/kg p.o.",14.3%
same,"Inflammation score 1 (<2 foci), share of animals","[2]; HFD rabbits, 0.3 mg/kg p.o.",42.8%
same,"Inflammation score 2 (2–4 foci), share of animals","[2]; HFD rabbits, 0.3 mg/kg p.o.",42.8%
same,"Inflammation score 3 (> 4 foci), share of animals","[2]; HFD rabbits, 0.3 mg/kg p.o.",0.0%
same,"Ballooning score 0 (no ballooning), share of animals","[2]; HFD rabbits, 1.0 mg/kg p.o.",0.0%
same,"Ballooning score 1 (few ballooned cells), share of animals","[2]; HFD rabbits, 1.0 mg/kg p.o.",85.7%
same,"Ballooning score 2 (prominent ballooning), share of animals","[2]; HFD rabbits, 1.0 mg/kg p.o.",14.3%
same,"Fibrosis (Ishak Score) 0, share of animals","[2]; HFD rabbits, 1.0 mg/kg p.o.",0.0%
same,"Fibrosis (Ishak Score) 1, share of animals","[2]; HFD rabbits, 1.0 mg/kg p.o.",0.0%
same,"Fibrosis (Ishak Score) 2, share of animals","[2]; HFD rabbits, 1.0 mg/kg p.o.",85.7%
same,"Fibrosis (Ishak Score) 3, share of animals","[2]; HFD rabbits, 1.0 mg/kg p.o.",14.3%
same,"Fibrosis (Ishak Score) 4, share of animals","[2]; HFD rabbits, 1.0 mg/kg p.o.",0.0%
same,"Fibrosis (Ishak Score) 5, share of animals","[2]; HFD rabbits, 1.0 mg/kg p.o.",0.0%
same,"Inflammation score 0 (no foci), share of animals","[2]; HFD rabbits, 1.0 mg/kg p.o.",14.3%
same,"Inflammation score 1 (<2 foci), share of animals","[2]; HFD rabbits, 1.0 mg/kg p.o.",71.4%
same,"Inflammation score 2 (2–4 foci), share of animals","[2]; HFD rabbits, 1.0 mg/kg p.o.",14.3%
same,"Inflammation score 3 (> 4 foci), share of animals","[2]; HFD rabbits, 1.0 mg/kg p.o.",0.0%
same,Liver steatosis (Oil Red O staining),"[2]; HFD rabbits, 1.0 mg/kg, not significantly different from controls",mild beneficial effect
same,Picrosirius Red percentage of fibrosis area,"[2]; HFD rabbits, 1.0 mg/kg, p < 0.05 vs. HFD + Veh",normalized
same,Vimentin positivity in liver,"[2]; HFD rabbits, 1.0 mg/kg, p = 0.072 vs. HFD + Veh",borderline reduction
same,"Ballooning score 0 (no ballooning), share of animals","[2]; HFD rabbits, 5.0 mg/kg p.o.",0.0%
same,"Ballooning score 1 (few ballooned cells), share of animals","[2]; HFD rabbits, 5.0 mg/kg p.o.",57.1%
same,"Ballooning score 2 (prominent ballooning), share of animals","[2]; HFD rabbits, 5.0 mg/kg p.o.",42.9%
same,"Fibrosis (Ishak Score) 0, share of animals","[2]; HFD rabbits, 5.0 mg/kg p.o.",0.0%
same,"Fibrosis (Ishak Score) 1, share of animals","[2]; HFD rabbits, 5.0 mg/kg p.o.",0.0%
same,"Fibrosis (Ishak Score) 2, share of animals","[2]; HFD rabbits, 5.0 mg/kg p.o.",42.8%
same,"Fibrosis (Ishak Score) 3, share of animals","[2]; HFD rabbits, 5.0 mg/kg p.o.",42.8%
same,"Fibrosis (Ishak Score) 4, share of animals","[2]; HFD rabbits, 5.0 mg/kg p.o.",14.3%
same,"Fibrosis (Ishak Score) 5, share of animals","[2]; HFD rabbits, 5.0 mg/kg p.o.",0.0%
same,"Inflammation score 0 (no foci), share of animals","[2]; HFD rabbits, 5.0 mg/kg p.o.",0.0%
same,"Inflammation score 1 (<2 foci), share of animals","[2]; HFD rabbits, 5.0 mg/kg p.o.",100.0%
same,"Inflammation score 2 (2–4 foci), share of animals","[2]; HFD rabbits, 5.0 mg/kg p.o.",0.0%
same,"Inflammation score 3 (> 4 foci), share of animals","[2]; HFD rabbits, 5.0 mg/kg p.o.",0.0%
same,Liver steatosis (Oil Red O staining),"[2]; HFD rabbits, 0.3, 1.0, 5.0 mg/kg",without significant differences among HFD groups
same,Galectin-3 immunohistochemical positivity in liver,"[2]; HFD rabbits, all selvigaltin treatments (0.3, 1.0, 5.0 mg/kg)",only partially abated
